Measurements: patent US20030113268A1, “Degradation-resistant glucocorticosteroid formulations” (priority 2000, published 2003)

Assay: Comparison of radical quenchers: impurities on storage at 40° C. and 75% relative humidity, uncoated canisters
Format: physicochemical
Settings: for effectiveness in reducing degradation of the budesonide formulations: Tables X-XII, 40° C./75% relative humidity
From the text: To compare the effectiveness of various radical quenchers in preventing degradation of budesonide formulations, formulations containing budesonide, HFA-134a, ethanol, and a radical quencher were made in uncoated canisters using the steps described in Example I. The compositions of the formulations are shown in Table IX. Formulations were made containing each radical quencher with and without 3% aqueous hydrogen peroxide. The hydrogen peroxide was included in some formulations to challenge the radical quencher.
The initial impurities in each formulation were measured, and the formulations were stored at 40° C. and 75% relative humidity. Impurities were measured again after 4 weeks and after 3 months. For selected formulations, impurities were also measured after 11 months.

Compound | effectiveness in reducing degradation of the budesonide formulations | physical stability of formulations including the radical quencher (clumping) (budesonide/ethanol/HFA-134a formulations)
CCCCCCCCCCCCCCCC(=O)OC[C@H](O)[C@H]1OC(=O)C(O)=C1O [ascorbyl palmitate] | very effective | tended to form clumps of solid matter
Vitamin E | effectively reduced degradation | –
COc1ccc(O)c(C(C)(C)C)c1 [butylated hydroxyanisole (BHA), butylated hydroxyanisole] | very effective | –
